The source made the active and inactive calls. The calls are words filed in the database; no cut-off is given here.
T1: Tyrosinase (Agaricus bisporus, UniProt O42713)
T1 sequence (O42713 whole entry): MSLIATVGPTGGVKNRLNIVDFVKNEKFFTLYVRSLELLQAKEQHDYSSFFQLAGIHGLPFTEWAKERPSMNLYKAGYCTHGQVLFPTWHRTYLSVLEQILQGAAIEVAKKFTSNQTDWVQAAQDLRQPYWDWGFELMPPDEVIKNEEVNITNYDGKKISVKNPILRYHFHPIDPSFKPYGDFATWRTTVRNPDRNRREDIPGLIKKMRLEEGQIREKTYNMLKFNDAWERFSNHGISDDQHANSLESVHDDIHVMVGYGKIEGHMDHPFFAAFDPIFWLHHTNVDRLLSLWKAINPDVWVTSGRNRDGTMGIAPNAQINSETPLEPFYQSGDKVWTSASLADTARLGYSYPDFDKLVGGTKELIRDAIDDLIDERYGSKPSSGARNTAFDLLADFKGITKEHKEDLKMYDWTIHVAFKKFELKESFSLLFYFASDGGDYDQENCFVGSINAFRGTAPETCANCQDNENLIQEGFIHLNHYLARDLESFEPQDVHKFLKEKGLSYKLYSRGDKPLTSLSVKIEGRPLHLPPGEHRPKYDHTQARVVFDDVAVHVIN

T2: Tyrosinase (Agaricus bisporus) (UniProt O42713)
T2 sequence (whole entry): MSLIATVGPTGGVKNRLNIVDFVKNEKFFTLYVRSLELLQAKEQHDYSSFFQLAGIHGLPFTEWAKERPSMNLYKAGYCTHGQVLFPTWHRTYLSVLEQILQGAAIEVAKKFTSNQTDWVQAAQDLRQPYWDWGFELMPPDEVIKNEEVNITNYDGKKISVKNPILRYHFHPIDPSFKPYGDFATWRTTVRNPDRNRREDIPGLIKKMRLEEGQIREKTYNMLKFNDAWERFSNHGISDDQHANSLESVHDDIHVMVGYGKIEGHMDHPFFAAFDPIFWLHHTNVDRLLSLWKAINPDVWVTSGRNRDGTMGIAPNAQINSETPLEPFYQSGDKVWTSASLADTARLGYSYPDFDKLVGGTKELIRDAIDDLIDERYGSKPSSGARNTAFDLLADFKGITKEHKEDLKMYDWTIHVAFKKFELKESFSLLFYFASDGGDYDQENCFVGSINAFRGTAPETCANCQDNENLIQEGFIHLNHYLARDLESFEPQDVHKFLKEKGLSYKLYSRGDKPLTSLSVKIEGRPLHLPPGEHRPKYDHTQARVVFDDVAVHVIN


What was measured:
MV4-11 = test: Antiproliferative activity against human MV4-11 cells incubated for 72 hrs by MTT assay; type: functional, cell-based; settings: MV4-11, 72 h
A549 [1] = test: Induction of apoptosis in human A549 cells assessed as fold increase in caspase 3/7 activation using Ac-DEVD-ACC as fluorogenic substrate at 5 ug/ml incubated for 72 hrs by fluorescence assay relative to control; type: functional
[2] = Lipophilicity, chromatographic lipophilicity index of the compound in methanol by UPLC-MS/MS; type: physicochemical
BALB/3T3 = test: Antiproliferative activity against mouse BALB/3T3 cells incubated for 72 hrs by SRB assay; type: cell-based; settings: BALB/3T3, 72 h
B16-F10 = test: Antiproliferative activity against mouse B16F10 cells incubated for 72 hrs by MTT assay; type: functional, cell-based; settings: B16-F10, 72 h
MCF7 [3] = test: Antiproliferative activity against human MCF7 cells incubated for 72 hrs by SRB assay; type: functional, cell-based; settings: MCF7, 72 h
Tyrosinase = molecular target: T1, Tyrosinase; test: Inhibition of mushroom tyrosinase using L-dopa as substrate incubated for 30 mins by spectrophotometric method
A549 [4] = test: Antiproliferative activity against human A549 cells incubated for 72 hrs by SRB assay; type: functional, cell-based; settings: A549, 72 h
A549 [5] = test: Potency index, ratio of chlorambucil to ratio of test compound for induction of apoptosis in human A549 cells; type: functional
[6] = molecular target: T2, Tyrosinase (Agaricus bisporus); test: Ratio of IC50 for kojic acid to IC50 for test compound for inhibition of mushroom tyrosinase using L-dopa as substrate incubated for 30 mins by spectrophotometric method
[7] = molecular target: T2, Tyrosinase (Agaricus bisporus); test: Ratio of IC50 for ascorbic acid to IC50 for test compound for inhibition of mushroom tyrosinase using L-dopa as substrate incubated for 30 mins by spectrophotometric method
[8] = molecular target: T2, Tyrosinase (Agaricus bisporus); test: Inhibition of mushroom tyrosinase assessed as reduction in peak intensity at 25 mM using L-dopa as substrate incubated for 30 mins by UV-vis spectra analysis
HCT-116 = test: Antiproliferative activity against human HCT116 cells by MTT assay; type: functional, cell-based
MCF7 [9] = test: Antiproliferative activity against human MCF7 cells reduction in cell viability; type: functional, cell-based
A549 [10] = test: Potency index, ratio of camptothecin to ratio of test compound for induction of apoptosis in human A549 cells; type: functional
[11] = molecular target: T2, Tyrosinase (Agaricus bisporus); test: Inhibition of mushroom tyrosinase assessed as reduction in peak intensity at 15 mM using L-dopa as substrate incubated for 30 mins by UV-vis spectra analysis
MCF7 [12] = test: Antiproliferative activity against human MCF7 cells reduction in cell viability relative to control; type: functional
HL-60 = test: Antiproliferative activity against human HL60 cells incubated for 48 hrs by MTS assay; type: functional, cell-based; settings: HL-60, 48 h
[13] = compound: CN1[C@@H]2CC[C@H]1C/C(=N/Nc1nc(-c3ccc(F)cc3)cs1)C2; test: (§1) Noncompetitive-inhibition of mushroom tyrosinase assessed as Vmax at 0.1 to 0.25 mM using 0.1 to 0.25 mM L-dopa as substrate incubated for 20 mins by Lineweaver-Burk double reciprocal plot analysis; settings: Agaricus bisporus
[14] = compound: CN1[C@@H]2CC[C@H]1C/C(=N/Nc1nc(-c3ccc(Cl)c(Cl)c3)cs1)C2; test: as §1; settings: Agaricus bisporus
[15] = compound: CN1[C@@H]2CC[C@H]1C/C(=N/Nc1nc(-c3ccc(Br)cc3)cs1)C2; test: as §1; settings: Agaricus bisporus
[16] = compound: CN1[C@@H]2CC[C@H]1C/C(=N/Nc1nc(-c3ccc(C(F)(F)F)cc3)cs1)C2; test: as §1; settings: Agaricus bisporus
[17] = compound: Cc1ccc(-c2csc(N/N=C3\C[C@H]4CC[C@@H](C3)N4C)n2)cc1; test: as §1; settings: Agaricus bisporus
[18] = compound: CN1[C@@H]2CC[C@H]1C/C(=N/Nc1nc(-c3ccc(Cl)cc3)cs1)C2; test: as §1; settings: Agaricus bisporus
[19] = compound: CN1[C@@H]2CC[C@H]1C/C(=N/Nc1nc(-c3ccc(Cl)cc3Cl)cs1)C2; test: as §1; settings: Agaricus bisporus
[20] = compound: CN1[C@@H]2CC[C@H]1C/C(=N/Nc1nc(-c3ccc(N=[N+]=[N-])cc3)cs1)C2; test: as §1; settings: Agaricus bisporus
[21] = compound: CN1[C@@H]2CC[C@H]1C/C(=N/Nc1nc(-c3ccc(Cl)c(Cl)c3)cs1)C2; test: (§2) Noncompetitive-inhibition of mushroom tyrosinase assessed as Km at 0.1 to 0.25 mM using 0.1 to 0.25 mM L-dopa as substrate incubated for 20 mins by Lineweaver-Burk double reciprocal plot analysis; settings: Agaricus bisporus
[22] = compound: CN1[C@@H]2CC[C@H]1C/C(=N/Nc1nc(-c3ccc(Br)cc3)cs1)C2; test: as §2; settings: Agaricus bisporus
[23] = compound: CN1[C@@H]2CC[C@H]1C/C(=N/Nc1nc(-c3ccc(Cl)cc3)cs1)C2; test: as §2; settings: Agaricus bisporus
[24] = compound: CN1[C@@H]2CC[C@H]1C/C(=N/Nc1nc(-c3ccc(Cl)cc3Cl)cs1)C2; test: as §2; settings: Agaricus bisporus
[25] = compound: CN1[C@@H]2CC[C@H]1C/C(=N/Nc1nc(-c3ccc(N=[N+]=[N-])cc3)cs1)C2; test: as §2; settings: Agaricus bisporus

| Molecule | IC50 (MV4-11) [µM] | logKw [2] | IC50 (BALB/3T3) [µM] | IC50 (B16-F10) [µM] | IC50 (MCF7 [3]) [µM] | IC50 (Tyrosinase) [µM] | IC50 (A549 [4]) [µM] | also measured |
| --- | --- | --- | --- | --- | --- | --- | --- | --- |
| ClCCN(CCCl)c1ccc(/C=N/Nc2nc(-c3ccc(Br)cc3)cs2)cc1 | 1.27 | – | – | – | – | – | – | – |
| CN1[C@@H]2CC[C@H]1C/C(=N/Nc1nc(-c3ccc(Cl)cc3)cs1)C2 | 9.37 | -2.844 | 9.2 | > 14.4 | 9.08 | 133 | 9.48 | Activity (A549 [1]): inactive |
| CN1[C@@H]2CC[C@H]1C/C(=N/Nc1nc(-c3ccc(Cl)cc3Cl)cs1)C2 | 6.82 | -3.79 | 8.16 | 5.48 | 7.05 | 3.51 | 7.47 | fold change (FC) (A549 [1]): 3 - 5; Ratio (A549 [5]): 3 - 5; Ratio IC50 [6]: 22; Ratio IC50 [7]: 120; inhibition [8]: Active |
| CCN1[C@@H]2CC[C@H]1/C(=C\c1ccc(OC)c(OC)c1)C(=O)/C2=C/c1ccc(OC)c(OC)c1 | – | – | – | – | – | – | – | IC50 (HCT-116): 0.01 µM |
| CN1[C@@H]2CC[C@H]1C/C(=N/Nc1nc(-c3ccc(F)cc3)cs1)C2 | 13.7 | -3.058 | 19.1 | > 15.1 | 19.2 | 123 | 42.8 | Activity (A549 [1]): inactive |
| O=C(O)CCCc1ccc(N(CCCl)CCCl)cc1 [CHLORAMBUCIL] | 8.55 | – | 69.7 | 12.6 | 69.3 | – | 72.8 | – |
| C/C(=N\Nc1nc(-c2ccc(Cl)c(Cl)c2)cs1)c1ccc(Nc2nc(N)nc(N)n2)cc1 | 3.56 | – | – | – | – | – | – | IC50 (MCF7 [9]): 7.59 µM |
| CN1[C@@H]2CC[C@H]1C/C(=N/Nc1nc(-c3ccc(Cl)c(Cl)c3)cs1)C2 | 8.29 | -4.024 | 8.58 | 5.43 | 7.19 | 3.22 | 7.89 | fold change (FC) (A549 [1]): 25; Ratio (A549 [5]): 18; Ratio IC50 [6]: 22; Ratio IC50 [7]: 120; Ratio (A549 [10]): 2; inhibition [11]: Active |
| Cc1ccc(-c2csc(N/N=C3\C[C@H]4CC[C@@H](C3)N4C)n2)cc1 | 10.1 | -2.654 | 10.2 | 10.6 | 11.1 | 101 | 17.3 | Activity (A549 [1]): inactive |
| CN1[C@@H]2CC[C@H]1C/C(=N/Nc1nc(-c3ccc(Br)cc3)cs1)C2 | 8.36 | -3.066 | 8.18 | 5.44 | 7.67 | 85 | 8.15 | fold change (FC) (A549 [1]): 3 - 5; Ratio (A549 [5]): 3 - 5 |
| CN1[C@@H]2CC[C@H]1C/C(=N/Nc1nc(-c3ccc(N=[N+]=[N-])cc3)cs1)C2 | 9.87 | -3.151 | 9.05 | 5.91 | 8.94 | 72.3 | 11 | Activity (A549 [1]): inactive |
| CN1[C@@H]2CC[C@H]1C/C(=N/Nc1nc(-c3ccc(C(F)(F)F)cc3)cs1)C2 | 6.68 | -3.25 | 8.41 | 5.86 | 6.02 | 33.7 | 7.54 | fold change (FC) (A549 [1]): 3 - 5; Ratio (A549 [5]): 3 - 5 |
| CN1[C@@H]2CC[C@H]1CC(=O)C2 | – | – | – | – | – | – | – | inhibition (INH) (MCF7 [12]): 26.98% |
| CN1[C@@H]2CC[C@H]1/C(=C\c1cccc(Br)c1)C(=O)/C2=C/c1cccc(Br)c1 | – | – | – | – | – | – | – | IC50 (HL-60): 3.39 µM; IC50 (MCF7 [9]): 13.1 µM |
| Tyrosinase (Agaricus bisporus), O42713 (protein) MSLIATVGPTGGVKNRLNIVDFVKNEKFFTLYVRSLELLQAKEQHDYSSFFQLAGIHGLPFTEWAKERPSMNLYKAGYCTHGQVLFPTWHRTYLSVLEQILQGAAIEVAKKFTSNQTDWVQAAQDLRQPYWDWGFELMPPDEVIKNEEVNITNYDGKKISVKNPILRYHFHPIDPSFKPYGDFATWRTTVRNPDRNRREDIPGLIKKMRLEEGQIREKTYNMLKFNDAWERFSNHGISDDQHANSLESVHDDIHVMVGYGKIEGHMDHPFFAAFDPIFWLHHTNVDRLLSLWKAINPDVWVTSGRNRDGTMGIAPNAQINSETPLEPFYQSGDKVWTSASLADTARLGYSYPDFDKLVGGTKELIRDAIDDLIDERYGSKPSSGARNTAFDLLADFKGITKEHKEDLKMYDWTIHVAFKKFELKESFSLLFYFASDGGDYDQENCFVGSINAFRGTAPETCANCQDNENLIQEGFIHLNHYLARDLESFEPQDVHKFLKEKGLSYKLYSRGDKPLTSLSVKIEGRPLHLPPGEHRPKYDHTQARVVFDDVAVHVIN | – | – | – | – | – | – | – | Vmax [13]: -1.58 abs/min; Vmax [14]: 5.59 abs/min; Vmax [15]: 2.53 abs/min; Vmax [16]: -12.8 abs/min; Vmax [17]: -16.5 abs/min; Vmax [18]: 6.24 abs/min; Vmax [19]: 0.0126 abs/min; Vmax [20]: 5.05 abs/min; Km [21]: 180 µM; Km [22]: 184 µM; Km [23]: 360 µM; Km [24]: 0.278 µM; Km [25]: 466 µM |

From ChEMBL document CHEMBL4350971, “Discovery of tropinone-thiazole derivatives as potent caspase 3/7 activators, and noncompetitive tyrosinase inhibitors with high antiproliferative activity: Rational design, one-pot tricomponent synthesis, and lipophilicity determination” (Eur J Med Chem, 2019)
